# Measured values as given in patent US20030232079A1, “DPC 333 formulation having unique biopharmaceutical characteristics” (priority 2002, published 2003).
# Read-outs that look alike come from different tables or passages of the source.
# What was measured:
# Type in all cases: in vivo, human
# [1] = Double-blind, placebo controlled, ascending single dose pharmacokinetic study of oral DPC 333 in healthy subjects; settings: for half-life / Cmax / Tmax / AUC / AUC(0-inf) / concentration at 12 h: both sexes, human, plasma; for AUC: read-out: mean AUC from time zero to time infinity, range; for concentration at 12 h: read-out: C12 (plasma concentration at 12 hours) Mean
# Experimental: (§1) The safety, tolerability, and pharmacokinetics of an oral dose form of DPC 333 were evaluated in a double-blind, placebo controlled, ascending single dose study in healthy male and female human subjects. Subjects in each cohort were randomized to receive either a single dose of DPC 333 (n=6) or placebo (n=2). Doses examined were 15, 25, 40, 80, 120, 225, 345, and 530 mg. Safety measurements included monitoring of AEs, standard clinical laboratory tests, ECGs, and vital sign measurements.
# (§2) Blood samples were obtained pre-dose (0 hour) and 0.25, 0.5, 1, 1.5, 2, 2.5, 3, 4, 6, 8, 12, 18, 24, 36 and 48 hours post-dose administration. DPC 333 was quantified plasma extracts from these blood samples by a solid phase method followed by turbo ion spray liquid chromatography employing tandem mass spectroscopic detection (LC/MS/MS). The validated assay range for DPC 333 using 0.2 mL of plasma was 1.05 to 2098 nM. The assay was specific for DPC 333.
# (§3) The following pharmacokinetic parameters for DPC 333 were assessed following a single dose administration of the DPC 333 oral dosage form to a subject: Cmax, Tmax, AUC, T1/2, Clo, and C12. Cmax is defined as the observed maximum plasma concentration. Tmax is defined as the time of observed maximum plasma concentration. AUC is defined as the area under the plasma concentration-time curve from time zero to time infinity; T1/2 is defined as the terminal disposition half-life.
# [2] = Effect of food on pharmacokinetics of oral DPC 333, two period crossover study (fasted vs high-fat breakfast); settings: for AUC(0-inf) / AUC(0-t) / Cmax: male, po, n = 6, mean ± SD
# Experimental: as §2, §3
# The effect of food on the safety, tolerability and pharmacokinetics of this oral dose form of DPC 333 was also examined in a randomized, open label, two period balanced crossover study in one cohort of male subjects. Each subject received a single oral 225 mg dose of DPC 333 on two occasions administered at least one week apart. On one occasion the dose was given in the fasted state and on the other occasion the dose was administered after a standard, high-fat breakfast meal. The following table provides pharmacokinetic data from this study.
# [3] = Comparison of DPC 333 pharmacokinetics by gender in fasted subjects; settings: for half-life / AUC(0-inf) / Cmax / Tmax: human, plasma, oral, 225 mg; for half-life: harmonic mean ± pseudo-standard deviation; for AUC(0-inf) / Cmax: mean ± SD; for Tmax: read-out: Tmax (median)
# Experimental: as §2, §3
# Differences in pharmacokinetics of DPC 333 based upon gender were also examined. The following table provides a comparison of DPC 333 pharmacokinetics by gender in fasted subjects receiving a single dose of 225 mg of DPC 333.
# [4] = Safety and tolerability of single oral doses of DPC 333 (AEs, clinical laboratory tests, ECGs, vital signs)
# Experimental: as §1
# [5] = Double-blind, placebo controlled, ascending single dose pharmacokinetic study of oral DPC 333 in healthy subjects; settings: single oral dose 80 mg, healthy volunteers, n = 12
# [6] = single oral dose 15 mg, healthy volunteers, n = 6
# [7] = single oral dose 25 mg, healthy volunteers, n = 6
# [8] = single oral dose 40 mg, healthy volunteers, n = 6
# [9] = single oral dose 80 mg, healthy volunteers, n = 12
# [10] = single oral dose 120 mg, healthy volunteers, n = 6
# [11] = single oral dose 225 mg, healthy volunteers, n = 6
# [12] = single oral dose 345 mg, healthy volunteers, n = 6
# [13] = single oral dose 530 mg, healthy volunteers, n = 6
# [14] = administered with food compared to fasted state, 225 mg
# [15] = fed/fasted, fasted treatment as the reference, 225 mg
# [16] = human, plasma, 225 mg, Fasted, 225 mg single oral dose, male subjects
# [17] = human, plasma, 225 mg, Fed (high-fat breakfast), 225 mg single oral dose, male subjects
# [18] = female, Females (n = 6), Part 1: 225 mg (fasted)
# [19] = male, Males (n = 6), Part 1: 225 mg (fasted)
# [20] = male, Males (n = 6), Part 2: 225 mg (fasted)
smiles,measurement,setting,value
"Cc1cc(COc2ccc([C@]3(N)CCN([C@H](CC(C)C)C(=O)NO)C3=O)cc2)c2ccccc2n1 [DPC 333, [1-(R)]-3-amino-N-hydroxy-alpha-(2-methylpropyl)-3-[4-[(2-methyl-4-quinolinyl)methoxy]phenyl]-2-oxo-1-pyrrolidineacetamide]",increase in mean AUC (time zero to time infinity) with dose,[1]; at a single dose greater than 225 mg,greater than proportional increase
same,increase in exposure (AUC) with dose,[1]; at the 345 mg and 530 mg doses,greater-than-proportional increase
same,half-life,"[1]; oral, for the higher doses, read-out: mean half-life estimates (converted)",~6 h
same,half-life,"[1]; oral, single dose administrations ranging from 15 mg to 530 mg, read-out: mean terminal disposition half-life (T1/2)",2 to 7 h
same,Cmax,"[1]; oral, single dose of 15 mg, read-out: mean maximum plasma concentration (Cmax), range",0.088 to 0.18 µM
same,Tmax,"[1]; oral, single dose of 15 mg, read-out: mean time of maximum plasma concentration (Tmax), range",0.5 to 1 h
same,AUC,"[1]; oral, single dose of 25 mg",0.45 to 0.9 µM·h
same,Cmax,"[1]; oral, single dose of 25 mg, read-out: mean maximum plasma concentration (Cmax), range",0.17 to 0.435 µM
same,Tmax,"[1]; oral, single dose of 25 mg, read-out: mean time of maximum plasma concentration (Tmax), range",0.5 to 1 h
same,AUC,"[1]; oral, single dose of 40 mg",0.93 to 1.43 µM·h
same,Tmax,"[1]; oral, single dose of 40 mg, read-out: mean time of maximum plasma concentration (Tmax), range",0.25 to 1 h
same,Cmax,"[1]; oral, single dose of 40 mg, upper limit in μM, read-out: mean maximum plasma concentration (Cmax), range",0.355 to 0.655 µM
same,AUC,"[1]; oral, single dose of 80 mg",2.25 to 4.16 µM·h
same,Tmax,"[1]; oral, single dose of 80 mg, read-out: mean time of maximum plasma concentration (Tmax), range",0.5 to 1 h
same,Cmax,"[1]; oral, single dose of 80 mg, upper limit in μM, read-out: mean maximum plasma concentration (Cmax), range",0.965 to 1.87 µM
same,AUC,"[1]; oral, single dose of 120 mg",3.33 to 6.21 µM·h
same,Cmax,"[1]; oral, single dose of 120 mg, read-out: mean maximum plasma concentration (Cmax), range",1.54 to 2.35 µM
same,Tmax,"[1]; oral, single dose of 120 mg, read-out: mean time of maximum plasma concentration (Tmax), range",0.5 to 1 h
same,AUC,"[1]; oral, single dose of 225 mg",6.38 to 9.4 µM·h
same,Tmax,"[1]; oral, single dose of 225 mg, read-out: mean time of maximum plasma concentration (Tmax), range",0.5 to 1 h
same,Cmax,"[1]; oral, single dose of 225 mg, upper limit in μM, read-out: mean maximum plasma concentration (Cmax), range",2.62 to 3.65 µM
same,AUC,"[1]; oral, single dose of 345 mg",18.4 to 28.8 µM·h
same,Cmax,"[1]; oral, single dose of 345 mg, read-out: mean maximum plasma concentration (Cmax), range",6.58 to 15.4 µM
same,Tmax,"[1]; oral, single dose of 345 mg, read-out: mean time of maximum plasma concentration (Tmax), range",0.25 to 1 h
same,AUC,"[1]; oral, single dose of 530 mg",22 to 39.5 µM·h
same,Cmax,"[1]; oral, single dose of 530 mg, read-out: mean maximum plasma concentration (Cmax), range",9.45 to 18.1 µM
same,Tmax,"[1]; oral, single dose of 530 mg, read-out: mean time of maximum plasma concentration (Tmax), range",0.5 to 1 h
same,half-life,"[1]; po, 15 mg, single oral dose 15 mg, healthy volunteers, n = 6, read-out: T½ Mean (harmonic mean) (converted)",2.18 h
same,half-life,"[1]; po, 25 mg, single oral dose 25 mg, healthy volunteers, n = 6, read-out: T½ Mean (harmonic mean) (converted)",2.86 h
same,half-life,"[1]; po, 40 mg, single oral dose 40 mg, healthy volunteers, n = 6, read-out: T½ Mean (harmonic mean) (converted)",3.41 h
same,half-life,"[1]; po, 80 mg, single oral dose 80 mg, healthy volunteers, n = 12, read-out: T½ Mean (harmonic mean) (converted)",4.05 h
same,half-life,"[1]; po, 120 mg, single oral dose 120 mg, healthy volunteers, n = 6, read-out: T½ Mean (harmonic mean) (converted)",4.89 h
same,half-life,"[1]; po, 225 mg, single oral dose 225 mg, healthy volunteers, n = 6, read-out: T½ Mean (harmonic mean) (converted)",5.53 h
same,half-life,"[1]; po, 345 mg, single oral dose 345 mg, healthy volunteers, n = 6, read-out: T½ Mean (harmonic mean) (converted)",6.39 h
same,half-life,"[1]; po, 530 mg, single oral dose 530 mg, healthy volunteers, n = 6, read-out: T½ Mean (harmonic mean) (converted)",6.04 h
same,Tmax,"[1]; oral administration, post dose, doses 15 to 530 mg, read-out: Tmax values",< 1 h
same,AUC(0-inf),[1]; [6],0.342 µM·h
same,concentration at 12 h,[1]; [6],2.09 nM
same,Cmax,"[1]; single oral dose 15 mg, healthy volunteers, n = 6, read-out: Cmax Mean",0.134 µM
same,Tmax,"[1]; single oral dose 15 mg, healthy volunteers, n = 6, read-out: Tmax Median",0.75 h
same,AUC(0-inf),[1]; [7],0.676 µM·h
same,concentration at 12 h,[1]; [7],4.41 nM
same,Cmax,"[1]; single oral dose 25 mg, healthy volunteers, n = 6, read-out: Cmax Mean",0.303 µM
same,Tmax,"[1]; single oral dose 25 mg, healthy volunteers, n = 6, read-out: Tmax Median",0.5 h
same,AUC(0-inf),[1]; [8],1.18 µM·h
same,concentration at 12 h,[1]; [8],6.36 nM
same,Cmax,"[1]; single oral dose 40 mg, healthy volunteers, n = 6, read-out: Cmax Mean",0.505 µM
same,Tmax,"[1]; single oral dose 40 mg, healthy volunteers, n = 6, read-out: Tmax Median",0.5 h
same,AUC(0-inf),[1]; [9],3.2 µM·h
same,concentration at 12 h,[1]; [9],20.4 nM
same,Cmax,"[1]; single oral dose 80 mg, healthy volunteers, n = 12, read-out: Cmax Mean",1.42 µM
same,Tmax,"[1]; single oral dose 80 mg, healthy volunteers, n = 12, read-out: Tmax Median",0.5 h
same,AUC(0-inf),[1]; [10],4.77 µM·h
same,concentration at 12 h,[1]; [10],30.3 nM
same,Cmax,"[1]; single oral dose 120 mg, healthy volunteers, n = 6, read-out: Cmax Mean",1.94 µM
same,Tmax,"[1]; single oral dose 120 mg, healthy volunteers, n = 6, read-out: Tmax Median",0.5 h
same,AUC(0-inf),[1]; [11],7.89 µM·h
same,concentration at 12 h,[1]; [11],49 nM
same,Cmax,"[1]; single oral dose 225 mg, healthy volunteers, n = 6, read-out: Cmax Mean",3.14 µM
same,Tmax,"[1]; single oral dose 225 mg, healthy volunteers, n = 6, read-out: Tmax Median",0.75 h
same,AUC(0-inf),[1]; [12],23.6 µM·h
same,concentration at 12 h,[1]; [12],153 nM
same,Cmax,"[1]; single oral dose 345 mg, healthy volunteers, n = 6, read-out: Cmax Mean",11 µM
same,Tmax,"[1]; single oral dose 345 mg, healthy volunteers, n = 6, read-out: Tmax Median",0.75 h
same,AUC(0-inf),[1]; [13],30.8 µM·h
same,concentration at 12 h,[1]; [13],167 nM
same,Cmax,"[1]; single oral dose 530 mg, healthy volunteers, n = 6, read-out: Cmax Mean",13.8 µM
same,Tmax,"[1]; single oral dose 530 mg, healthy volunteers, n = 6, read-out: Tmax Median",0.5 h
same,CLo (apparent oral clearance) Mean,[1]; [6],98.0 L/h
same,CLo (apparent oral clearance) Mean,[1]; [7],85.7 L/h
same,CLo (apparent oral clearance) Mean,[1]; [8],74.5 L/h
same,CLo (apparent oral clearance) Mean,[1]; [10],56.0 L/h
same,CLo (apparent oral clearance) Mean,[1]; [11],61.6 L/h
same,CLo (apparent oral clearance) Mean,[1]; [12],32.0 L/h
same,CLo (apparent oral clearance) Mean,[1]; [13],38.6 L/h
same,oral absorption,[1]; upon oral administration,rapidly and well absorbed
same,decrease in AUC with food,[2]; [14],about 23%
same,decrease in Cmax with food,[2]; [14],about 40%
same,AUC (0-t) Geometric Mean Ratio,[2]; [15],0.767
same,AUC (0-∞) Geometric Mean Ratio,[2]; [15],0.767
same,Cmax Geometric Mean Ratio,[2]; [15],0.597
same,Tmax,"[2]; human, plasma, Fasted, 225 mg single oral dose, male subjects, n = 6, read-out: Tmax (median)",0.5 h
same,AUC(0-inf),[2]; [16],12.5 ± 2.79 µM·h
same,AUC(0-t),[2]; [16],12.4 ± 2.79 µM·h
same,Cmax,[2]; [16],5700 ± 1420 nM
same,AUC(0-inf),[2]; [17],9.49 ± 1.71 µM·h
same,AUC(0-t),[2]; [17],9.48 ± 1.71 µM·h
same,Cmax,[2]; [17],3410 ± 832 nM
same,differences in pharmacokinetics due to gender,"[3]; fasted subjects, single dose of 225 mg",No apparent differences
same,half-life,[3]; [18],5.93 ± 0.66 h
same,AUC(0-inf),[3]; [18],11.4 ± 2.17 µM·h
same,Cmax,[3]; [18],6650 ± 1750 nM
same,Tmax,[3]; [18],0.51 h
same,half-life,[3]; [19],5.53 ± 0.88 h
same,AUC(0-inf),[3]; [19],7.89 ± 1.51 µM·h
same,Cmax,[3]; [19],3140 ± 511 nM
same,Tmax,[3]; [19],0.75 h
same,half-life,[3]; [20],6.19 ± 1.21 h
same,AUC(0-inf),[3]; [20],12.5 ± 2.79 µM·h
same,Cmax,[3]; [20],5700 ± 1420 nM
same,Tmax,[3]; [20],0.5 h
same,dose-related trends in safety parameters,"[4]; all safety parameters measured, doses 15 to 530 mg",no dose-related mean trends observed
same,discontinuations because of an AE / serious AEs,[4]; doses 15 to 530 mg,no discontinuations because of an AE nor any serious AEs reported
same,criteria for an intolerable dose,"[4]; doses evaluated, 15 to 530 mg",criteria for an intolerable dose were not achieved
same,tolerability,"[4]; oral dose form, healthy volunteers",well tolerates
same,CLo (apparent oral clearance) Mean,[5],57.3 L/h
